Experiments:
[1] = DRUGMATRIX: Sodium/nucleoside co-transporter radioligand binding (ligand: nitrobenzylthioinosine); assay type: cell membranes, Cavia porcellus, Dunkin-Hartley, Cerebral cortex, Membrane; settings: Not Active = under 50% inhibition at 10 µM
Substance-K receptor = molecular target: T1, Substance-K receptor (Homo sapiens, UniProt P21452); assay type: cell membranes, CHO, Membrane; further: in other assays of this panel Not Active means under 50% inhibition at 10 µM
T1 sequence (P21452 whole entry): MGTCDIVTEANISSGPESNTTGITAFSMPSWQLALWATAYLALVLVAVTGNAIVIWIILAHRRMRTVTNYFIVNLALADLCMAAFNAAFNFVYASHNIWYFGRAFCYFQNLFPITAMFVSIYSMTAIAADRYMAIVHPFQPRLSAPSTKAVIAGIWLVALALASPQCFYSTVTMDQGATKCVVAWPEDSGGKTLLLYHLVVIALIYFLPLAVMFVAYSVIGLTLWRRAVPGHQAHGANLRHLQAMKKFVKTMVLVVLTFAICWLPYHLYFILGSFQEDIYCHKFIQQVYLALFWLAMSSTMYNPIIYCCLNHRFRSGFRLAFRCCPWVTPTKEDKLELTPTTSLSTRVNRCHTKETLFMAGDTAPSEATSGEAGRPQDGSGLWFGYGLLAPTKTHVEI

[2] = molecular target: T2, C-X-C chemokine receptor type 2 (Homo sapiens, UniProt P25025); assay type: cell membranes, CHO-K1, Membrane; settings: cho-k1; further: in other assays of this panel Not Active means under 50% inhibition at 10 µM
T2 sequence (P25025 whole entry): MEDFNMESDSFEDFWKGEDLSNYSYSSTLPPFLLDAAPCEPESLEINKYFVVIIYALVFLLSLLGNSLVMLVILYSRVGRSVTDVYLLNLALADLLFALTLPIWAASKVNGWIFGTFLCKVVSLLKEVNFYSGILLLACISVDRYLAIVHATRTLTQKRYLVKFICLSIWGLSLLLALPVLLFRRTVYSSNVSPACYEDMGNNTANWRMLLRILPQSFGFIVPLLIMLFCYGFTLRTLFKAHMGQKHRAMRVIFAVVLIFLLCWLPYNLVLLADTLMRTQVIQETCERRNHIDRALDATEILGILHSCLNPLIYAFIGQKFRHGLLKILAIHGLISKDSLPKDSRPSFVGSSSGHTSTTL

[3] = DRUGMATRIX: Glutamate, NMDA, Agonism radioligand binding (ligand: [3H] CGP-39653); assay type: cell membranes, Rattus norvegicus, Wistar, Cerebral cortex, Membrane; settings: Not Active = under 50% inhibition at 10 µM
[4] = molecular target: T3, Nitric oxide synthase, inducible (Mus musculus, UniProt P29477); set-up: species or system Escherichia coli;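 further: inhibition of iNOS enzyme activity measured with L-arginine as substrate; in other assays of this panel Not Active means under 50% inhibition at 10 µM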
T3 sequence (P29477 whole entry): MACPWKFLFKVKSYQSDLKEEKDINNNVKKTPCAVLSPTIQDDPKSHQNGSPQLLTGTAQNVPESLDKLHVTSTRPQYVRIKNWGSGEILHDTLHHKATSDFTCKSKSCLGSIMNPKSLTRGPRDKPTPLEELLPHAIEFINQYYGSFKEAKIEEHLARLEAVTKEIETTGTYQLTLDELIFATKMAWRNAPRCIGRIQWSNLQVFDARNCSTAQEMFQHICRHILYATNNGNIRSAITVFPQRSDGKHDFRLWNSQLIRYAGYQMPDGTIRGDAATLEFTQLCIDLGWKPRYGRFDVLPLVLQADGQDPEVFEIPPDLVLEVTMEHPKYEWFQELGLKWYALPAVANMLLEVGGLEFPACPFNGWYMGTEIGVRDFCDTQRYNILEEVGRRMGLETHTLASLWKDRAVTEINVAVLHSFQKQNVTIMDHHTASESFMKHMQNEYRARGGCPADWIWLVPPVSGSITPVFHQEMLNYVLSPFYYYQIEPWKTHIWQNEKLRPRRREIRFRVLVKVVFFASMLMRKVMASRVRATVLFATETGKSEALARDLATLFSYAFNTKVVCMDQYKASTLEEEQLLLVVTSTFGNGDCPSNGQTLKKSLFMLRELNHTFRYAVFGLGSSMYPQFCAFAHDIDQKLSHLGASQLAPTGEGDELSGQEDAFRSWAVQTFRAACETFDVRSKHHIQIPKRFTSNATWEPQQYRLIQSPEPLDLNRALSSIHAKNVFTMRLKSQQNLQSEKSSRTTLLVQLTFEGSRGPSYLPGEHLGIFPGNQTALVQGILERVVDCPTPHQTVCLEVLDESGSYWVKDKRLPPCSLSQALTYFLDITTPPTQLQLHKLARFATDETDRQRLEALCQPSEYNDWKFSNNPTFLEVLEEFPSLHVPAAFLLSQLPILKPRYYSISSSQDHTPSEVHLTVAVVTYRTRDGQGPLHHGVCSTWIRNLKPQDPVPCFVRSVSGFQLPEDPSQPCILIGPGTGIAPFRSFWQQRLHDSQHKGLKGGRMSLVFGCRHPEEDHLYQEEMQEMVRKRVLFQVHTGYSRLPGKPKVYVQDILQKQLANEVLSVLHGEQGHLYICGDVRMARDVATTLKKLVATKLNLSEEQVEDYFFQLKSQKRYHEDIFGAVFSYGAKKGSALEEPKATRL

[5] = DRUGMATRIX: Purinergic P2X radioligand binding (ligand: [3H] alpha, beta-Methylene-ATP); assay type: cell membranes, Oryctolagus cuniculus, New Zealand albino, Urinary bladder, Membrane; settings: Not Active = under 50% inhibition at 10 µM

SMILES | IC50 [1] | Ki [1] | IC50 (Substance-K receptor; read-out: IC50) [nM] | Ki (Substance-K receptor; read-out: Ki) [nM] | IC50 [2] | IC50 [3] | Ki [3] | IC50 [4] | IC50 [5] | Ki [5] | IC50 (Substance-K receptor; cho)
CN1C[C@H](CNC(=O)OCc2ccccc2)C[C@@H]2c3cccc4c3c(cn4C)C[C@H]21 [METERGOLINE] | Not Active | Not Active | 4070 | 1360 | Not Active | Not Active | Not Active | Not Active | Not Active | Not Active | –
CC(Cl)(Cl)Cl [TRICHLOROETHANE] | Not Active | Not Active | – | – | Not Active | Not Active | Not Active | Not Active | Not Active | Not Active | Not Active
CC1=C(/C=C/C(C)=C/C=C/C(C)=C/C(=O)O)C(C)(C)CCC1 [TRETINOIN] | Not Active | Not Active | – | – | Not Active | Not Active | Not Active | Not Active | Not Active | Not Active | Not Active
C=CCc1ccc2c(c1)OCO2 [SAFROLE] | Not Active | Not Active | – | – | Not Active | Not Active | Not Active | Not Active | Not Active | Not Active | Not Active
C1CCN2C[C@@H]3C[C@@H](CN4CCCC[C@@H]34)[C@H]2C1 [SPARTEINE] | Not Active | Not Active | – | – | Not Active | Not Active | Not Active | Not Active | Not Active | Not Active | Not Active

Source: ChEMBL document CHEMBL1909046, “DrugMatrix in vitro pharmacology data”
